Assay results taken from patent US12084430B2, “Tricyclic urea compounds as JAK2 V617F inhibitors” (Incyte Corporation, priority 2022, dated 2024).
Read-outs that look alike come from different tables or passages of the source.

Experiments:
[1] = target: T1, pseudo-kinase domain (JH2) of human V617F mutant JAK2 (Homo sapiens, UniProt O60674, F794H/V617F/W659A/W777A); test: JAK2 LanthaScreen JH2-V617F binding assay; conditions: read-out: JH2 V617F Bind IC50
T1 construct: pseudo-kinase domain (JH2, amino-acids 536-812 with 3 surface mutations W659A, W777A, F794H); His (C); purchased BPS Bioscience 79498; host or cells: baculovirus expression system
Method: Example B. JAK2 LanthaScreen JH2-V617F Binding Assay
JAK2 JH2-V617F binding assay utilizes pseudo-kinase domain (JH2, amino-acids 536-812 with 3 surface mutations W659A, W777A, F794H) of human V617F mutant JAK2 expressed as C-terminal His-Avi-tagged, biotinylated protein in a baculovirus expression system (BPS Bioscience, Catalog #79498). The assay was conducted in black 384-well polystyrene plates in a final reaction volume of 20 μL. JAK2 JH2-V617F (0.26 nM) was incubated with compounds (100 nL serially diluted in DMSO) in the presence of 50 nM Fluorescent JAK2-JH2 Tracer (MedChem Express Catalog #HY-102055) and 0.25 nM Streptavidin-Tb cryptate (Cisbio Part #610SATLB) in assay buffer (50 mM Tris, pH=7.5, 10 mM MgCl2, 0.01% Brij-35, 0.1% BSA, 1 mM EGTA, 5% Glycerol and 5 mM DTT). Non-specific binding was accessed in the presence of 2 mM ATP. After incubation for 1 hour at 25° C., LanthaScreen signals were read on a PHERAstar FS plate reader (BMG LABTECH). Data was analyzed with IDBS XLfit and GraphPad Prism 5.0 software using a four parameter dose response curve to determine IC50 for each compound.

[2] = tested on: TRKA; test: TRKA enzymatic assay; format: biochemical
Method: (§1) Example I. TRKA Enzymatic Assay
(§2) The kinase assays were carried out at 24° C. temperature in assay buffer (HEPES 50 mM, pH 7.0, NaN3 0.02%, BSA 0.01%, Orthovanadate 0.1 mM, DTT 1 mM, MgCl2 10 mM) in a final volume of 10 μL. Testing compounds were prepared by serial dilution in DMSO and transferred to the plate wells by ECHO liquid handler (Labcyte) with 0.5% DMSO in the final assay. […]. Reactions were initiated by the addition of 5 μL ATP in assay buffer. The final 10 μL kinase reaction consists of 0.58 nM TRKA, 1 mM ATP, 500 nM TK Substrate-biotin and SEB reagent 62.5 nM in assay buffer. […] After 60 minutes incubation at room temperature, the product activity was determined by measuring the fluorescence at 620 nm and 665 nm on Pherastar microplate reader (BMG Labtech). A ratio is calculated (665/620 nm) for each well. Wells with DMSO only were served as the positive controls and wells containing no ATP were used as negative controls. IC50 determination was performed by fitting the curve of percent control activity versus the log of the compound concentration using the Gene data.

[3] = target: TRKA (Homo sapiens, UniProt P04629); test: TRKA enzymatic assay; format: biochemical; conditions: 1 mM ATP
Method: as §1, §2

[4] = tested on: FLT3; test: FLT3 enzymatic assay; format: biochemical
Method: Example C. FLT3 Enzymatic Assay
(§3) The kinase assays were carried out at room temperature in assay buffer (HEPES 50 mM, pH 7.0, NaN3 0.02%, BSA 0.01%, Orthovanadate 0.1 mM, DTT 1 mM, MgCl2 10 mM) in a final volume of 10 μL. Testing compounds were prepared by serial dilution in DMSO and transferred to the plate wells by ECHO liquid handler (Labcyte) with 0.5% DMSO in the final assay. […]. Reactions were initiated by the addition of 5 μL ATP in assay buffer. The final 10 μL kinase reaction consists of 0.011 nM FLT3, 1 mM ATP, 500 nM TK Substrate-biotin and SEB reagent 62.5 nM in assay buffer. […] The plates were then sealed and centrifuged at 1800 rpm for 2 minutes. After 60 minutes incubation at room temperature, the product activity was determined by measuring the fluorescence at 620 nm and 665 nm on Pherastar microplate reader (BMG Labtech). A ratio is calculated (665/620 nm) for each well. Wells with DMSO only were served as the positive controls and wells containing no ATP were used as negative controls. IC50 determination was performed by fitting the curve of percent control activity versus the log of the compound concentration using the GraphPad Prism 7.0 software.

[5] = tested on: KIT; test: KIT enzymatic assay; format: biochemical
Method: (§4) Example D. KIT Enzymatic Assay
as §3, with “0.12” for “0.011”, “KIT,” for “FLT3,”

[6] = target: KIT (Homo sapiens, UniProt P10721); test: KIT enzymatic assay; format: biochemical; conditions: 1 mM ATP
Method: as §4
as §3, with “0.12” for “0.011”, “KIT,” for “FLT3,”

Chain of KIT (Homo sapiens, UniProt P10721) (P10721 26-976, species assumed): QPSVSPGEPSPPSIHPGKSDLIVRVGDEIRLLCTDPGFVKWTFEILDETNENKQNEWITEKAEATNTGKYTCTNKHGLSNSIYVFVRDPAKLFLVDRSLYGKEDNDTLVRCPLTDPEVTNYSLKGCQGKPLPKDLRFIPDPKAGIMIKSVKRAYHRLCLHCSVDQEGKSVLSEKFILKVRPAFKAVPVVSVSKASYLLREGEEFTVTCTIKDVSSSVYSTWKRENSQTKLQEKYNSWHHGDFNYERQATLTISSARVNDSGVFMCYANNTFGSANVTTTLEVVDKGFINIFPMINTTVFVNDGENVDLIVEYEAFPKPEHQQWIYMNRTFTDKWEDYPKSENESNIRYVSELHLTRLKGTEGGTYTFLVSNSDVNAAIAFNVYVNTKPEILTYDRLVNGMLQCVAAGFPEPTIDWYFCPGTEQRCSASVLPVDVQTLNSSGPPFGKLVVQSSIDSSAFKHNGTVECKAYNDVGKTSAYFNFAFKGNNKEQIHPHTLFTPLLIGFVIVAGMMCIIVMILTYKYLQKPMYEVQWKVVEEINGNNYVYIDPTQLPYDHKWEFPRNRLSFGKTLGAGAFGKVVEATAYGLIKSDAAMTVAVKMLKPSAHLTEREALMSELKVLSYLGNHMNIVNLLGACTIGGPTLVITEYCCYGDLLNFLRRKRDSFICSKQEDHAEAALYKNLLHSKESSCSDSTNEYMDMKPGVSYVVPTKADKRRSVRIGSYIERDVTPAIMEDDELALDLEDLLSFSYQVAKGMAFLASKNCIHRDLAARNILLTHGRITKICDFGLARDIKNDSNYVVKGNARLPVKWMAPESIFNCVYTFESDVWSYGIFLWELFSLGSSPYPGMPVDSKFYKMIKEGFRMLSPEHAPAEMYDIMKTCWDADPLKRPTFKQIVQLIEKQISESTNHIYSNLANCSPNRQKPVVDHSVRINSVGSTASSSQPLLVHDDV
T1 sequence (O60674 536-812 V617F/W659A/W777A/F794H): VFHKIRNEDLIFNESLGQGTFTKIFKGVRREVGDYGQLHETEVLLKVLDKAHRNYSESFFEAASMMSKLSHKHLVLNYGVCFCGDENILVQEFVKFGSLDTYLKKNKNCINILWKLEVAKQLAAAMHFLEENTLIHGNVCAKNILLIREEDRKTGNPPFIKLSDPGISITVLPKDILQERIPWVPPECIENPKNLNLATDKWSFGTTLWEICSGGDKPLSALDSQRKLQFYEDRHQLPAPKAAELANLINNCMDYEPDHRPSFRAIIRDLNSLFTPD
Chain of TRKA (Homo sapiens, UniProt P04629) (P04629 33-796, species assumed): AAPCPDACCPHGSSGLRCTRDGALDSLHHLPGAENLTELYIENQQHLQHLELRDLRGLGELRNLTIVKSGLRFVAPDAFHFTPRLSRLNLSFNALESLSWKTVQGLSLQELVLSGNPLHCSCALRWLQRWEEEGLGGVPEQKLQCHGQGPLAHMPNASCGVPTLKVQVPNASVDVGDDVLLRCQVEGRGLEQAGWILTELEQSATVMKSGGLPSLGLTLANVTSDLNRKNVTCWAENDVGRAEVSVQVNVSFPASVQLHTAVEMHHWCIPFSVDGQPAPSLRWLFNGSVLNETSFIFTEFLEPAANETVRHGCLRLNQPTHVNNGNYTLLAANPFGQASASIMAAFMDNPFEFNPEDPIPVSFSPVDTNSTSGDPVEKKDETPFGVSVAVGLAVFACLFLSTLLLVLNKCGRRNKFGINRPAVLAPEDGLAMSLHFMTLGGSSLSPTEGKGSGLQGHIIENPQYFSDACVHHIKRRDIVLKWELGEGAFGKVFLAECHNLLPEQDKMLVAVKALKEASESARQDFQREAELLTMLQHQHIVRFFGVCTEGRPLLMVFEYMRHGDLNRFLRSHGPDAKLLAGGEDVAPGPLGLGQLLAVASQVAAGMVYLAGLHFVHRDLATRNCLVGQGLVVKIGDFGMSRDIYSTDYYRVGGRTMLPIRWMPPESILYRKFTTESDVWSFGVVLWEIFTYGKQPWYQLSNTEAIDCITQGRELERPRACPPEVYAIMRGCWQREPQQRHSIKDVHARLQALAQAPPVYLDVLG

Question: Which IC50 ([1]; Table A) does the source give for [2H]C([2H])([2H])n1cc(-c2[nH]c3ncc4c(c3c2-c2ccc(F)cc2)n([C@@H]2CC[C@@H](NC(=O)OC)C2)c(=O)n4C([2H])([2H])[2H])c(F)n1 [Example 7, Methyl ((1R,3R)-3-(7-(3-fluoro-1-(methyl-d3)-1H-pyrazol-4-yl)-8-(4-fluorophenyl)-3-(methyl-d3)-2-oxo-3,6-dihydroimidazo[4,5-d]pyrrolo[2,3-b]pyridin-1(2H)-yl)cyclopentyl)carbamate] here?
Answer: ≤ 10 nM

Question: And the IC50 ([1]; Table C)?
Answer: ≤ 10 nM

Question: And the “Selectivity TRKA/JH2 V617F” value [2]?
Answer: ***** (selectivity of >5000-fold to ≤12500-fold)

Question: What about the IC50 [3] of the same compound?
Answer: > 2500 nM

Question: What about the “Selectivity FLT3/JH2 V617F” value [4] of the same compound?
Answer: **** (selectivity of >1750-fold to ≤5000-fold)

Question: And the “Selectivity KIT/JH2 V617F” value [5]?
Answer: ** (selectivity of >500-fold to ≤1500-fold)

Question: And the IC50 [6]?
Answer: 250 to 1250 nM

Question: What does the source list for [2H]C([2H])([2H])n1cc(-c2[nH]c3ncc4c(c3c2-c2ccc3c(c2)COC3(C)C)n([C@@H]2CC[C@@H](NC(=O)OC)C2)c(=O)n4C([2H])([2H])[2H])c(F)n1 [Example 8, Methyl ((1R,3R)-3-(8-(1,1-dimethyl-1,3-dihydroisobenzofuran-5-yl)-7-(3-fluoro-1-(methyl-d3)-1H-pyrazol-4-yl)-3-(methyl-d3)-2-oxo-3,6-dihydroimidazo[4,5-d]pyrrolo[2,3-b]pyridin-1(2H)-yl)cyclopentyl)carbamate]?
Answer: IC50 ([1]; Table A): ≤ 10 nM; IC50 ([1]; Table C): ≤ 10 nM; Selectivity TRKA/JH2 V617F [2]: ****** (selectivity of >12500-fold); IC50 [3]: > 2500 nM; Selectivity FLT3/JH2 V617F [4]: ****** (selectivity of >12500-fold); Selectivity KIT/JH2 V617F [5]: ****** (selectivity of >12500-fold); IC50 [6]: 1250 to 2500 nM

Question: What does the source list for [2H]C([2H])([2H])Oc1ccc(-c2c(-c3cn(C([2H])([2H])[2H])nc3F)[nH]c3ncc4c(c23)n([C@@H]2CC[C@@H](NC(=O)OC)C2)c(=O)n4C([2H])([2H])[2H])cc1 [Example 9, Methyl ((1R,3R)-3-(7-(3-fluoro-1-(methyl-d3)-1H-pyrazol-4-yl)-8-(4-(methoxy-d3)phenyl)-3-(methyl-d3)-2-oxo-3,6-dihydroimidazo[4,5-d]pyrrolo[2,3-b]pyridin-1(2H)-yl)cyclopentyl)carbamate]?
Answer: IC50 ([1]; Table A): ≤ 10 nM; IC50 ([1]; Table C): ≤ 10 nM; Selectivity TRKA/JH2 V617F [2]: ***** (selectivity of >5000-fold to ≤12500-fold); IC50 [3]: 1250 to 2500 nM; Selectivity FLT3/JH2 V617F [4]: ***** (selectivity of >5000-fold to ≤12500-fold); Selectivity KIT/JH2 V617F [5]: *** (selectivity of >1500-fold to ≤1750-fold); IC50 [6]: 250 to 1250 nM

Question: Which results are given for [2H]C([2H])([2H])n1cc(-c2[nH]c3ncc4c(c3c2-c2ccc(C(C)(C)O)cc2)n([C@@H]2CC[C@@H](NC(=O)OC)C2)c(=O)n4C([2H])([2H])[2H])c(F)n1 [Example 10, Methyl ((1R,3R)-3-(7-(3-fluoro-1-(methyl-d3)-1H-pyrazol-4-yl)-8-(4-(2-hydroxypropan-2-yl)phenyl)-3-(methyl-d3)-2-oxo-3,6-dihydroimidazo[4,5-d]pyrrolo[2,3-b]pyridin-1(2H)-yl)cyclopentyl)carbamate]?
Answer: IC50 ([1]; Table A): ≤ 10 nM; IC50 ([1]; Table C): ≤ 10 nM; Selectivity TRKA/JH2 V617F [2]: ****** (selectivity of >12500-fold); IC50 [3]: > 2500 nM; Selectivity FLT3/JH2 V617F [4]: **** (selectivity of >1750-fold to ≤5000-fold); Selectivity KIT/JH2 V617F [5]: *** (selectivity of >1500-fold to ≤1750-fold); IC50 [6]: 250 to 1250 nM

Question: How did the IC50 ([1]; Table A) turn out when [2H]C([2H])([2H])n1cc(-c2[nH]c3ncc4c(c3c2-c2ccc3c(c2)COC3(C)C)n([C@@H]2CC[C@@H](NC(=O)OC)C2)c(=O)n4C)c(F)n1 [Example 11, Methyl ((1R,3R)-3-(8-(1,1-dimethyl-1,3-dihydroisobenzofuran-5-yl)-7-(3-fluoro-1-(methyl-d3)-1H-pyrazol-4-yl)-3-methyl-2-oxo-3,6-dihydroimidazo[4,5-d]pyrrolo[2,3-b]pyridin-1(2H)-yl)cyclopentyl)carbamate] was run?
Answer: ≤ 10 nM

Question: What about the IC50 ([1]; Table C) of the same compound?
Answer: ≤ 10 nM

Question: What about the “Selectivity TRKA/JH2 V617F” value [2] of the same compound?
Answer: ****** (selectivity of >12500-fold)

Question: What about the IC50 [3] of the same compound?
Answer: > 2500 nM

Question: What about the “Selectivity FLT3/JH2 V617F” value [4] of the same compound?
Answer: ****** (selectivity of >12500-fold)

Question: And the “Selectivity KIT/JH2 V617F” value [5]?
Answer: ****** (selectivity of >12500-fold)

Question: What about the IC50 [6] of the same compound?
Answer: > 2500 nM

Question: Which IC50 ([1]; Table A) does the source give for [2H]C([2H])([2H])n1c(=O)n([C@@H]2CC[C@@H](NC(=O)OC)C2)c2c3c(-c4ccc5c(c4)COC5(C)C)c(-c4cn(CC(F)F)nc4F)[nH]c3ncc21 [Example 12, Methyl ((1R,3R)-3-(7-(1-(2,2-difluoroethyl)-3-fluoro-1H-pyrazol-4-yl)-8-(1,1-dimethyl-1,3-dihydroisobenzofuran-5-yl)-3-(methyl-d3)-2-oxo-3,6-dihydroimidazo[4,5-d]pyrrolo[2,3-b]pyridin-1(2H)-yl)cyclopentyl)carbamate] here?
Answer: ≤ 10 nM

Question: What about the IC50 ([1]; Table C) of the same compound?
Answer: ≤ 10 nM

Question: What about the “Selectivity TRKA/JH2 V617F” value [2] of the same compound?
Answer: ****** (selectivity of >12500-fold)

Question: What about the IC50 [3] of the same compound?
Answer: > 2500 nM

Question: What about the “Selectivity FLT3/JH2 V617F” value [4] of the same compound?
Answer: ****** (selectivity of >12500-fold)

Question: And the “Selectivity KIT/JH2 V617F” value [5]?
Answer: ****** (selectivity of >12500-fold)

Question: And the IC50 [6]?
Answer: > 2500 nM

Question: Which IC50 ([1]; Table A) does the source give for [2H]C([2H])([2H])n1cc(-c2[nH]c3ncc4c(c3c2-c2ccc3c(cnn3C(C)C)c2)n([C@@H]2CC[C@@H](NC(=O)OC)C2)c(=O)n4C([2H])([2H])[2H])c(F)n1 [Example 13, Methyl ((1R,3R)-3-(7-(3-fluoro-1-(methyl-d3)-1H-pyrazol-4-yl)-8-(1-isopropyl-1H-indazol-5-yl)-3-(methyl-d3)-2-oxo-3,6-dihydroimidazo[4,5-d]pyrrolo[2,3-b]pyridin-1(2H)-yl)cyclopentyl)carbamate] here?
Answer: ≤ 10 nM

Question: And the IC50 ([1]; Table C)?
Answer: ≤ 10 nM

Question: And the “Selectivity TRKA/JH2 V617F” value [2]?
Answer: ****** (selectivity of >12500-fold)

Question: What about the IC50 [3] of the same compound?
Answer: > 2500 nM

Question: And the “Selectivity FLT3/JH2 V617F” value [4]?
Answer: ****** (selectivity of >12500-fold)

Question: And the “Selectivity KIT/JH2 V617F” value [5]?
Answer: **** (selectivity of >1750-fold to ≤5000-fold)

Question: What about the IC50 [6] of the same compound?
Answer: 250 to 1250 nM
